# Values of other authors as cited in patent publication US20240173373A1, “NOVEL METHOD FOR THE PRODUCTION OF CONCENTRATED ALOE VERA COMPOSITIONS AND THERAPEUTIC USES FOR THE SAME” (Desert Harvest, Inc., priority 2021, published 2024).
# System: scald hyperalgesia
# Details: compared with phenylbutazone
substance,measurement,value
O-acetylated-D-mannan [O-acetylated-D-mannan (T-2-HN)],inhibitory effect on scald hyperalgesia,more marked inhibitory effect on scald hyperalgesia than phenylbutazone
